Entries after “also recorded” stand apart in the source; their conditions may differ.
What was measured:
HeLa cells = assay: MM-induced calcium responses in HeLa cells; type: cell-based; conditions: 400 nm, 250 ms, 3.2×10^2 W cm^−2
Excerpt: FIGS. 12A & 12B—ICW in HeLa cells after stimulation with MM 1 and light. (a) Confocal images of HeLa cells treated with MM 1 (blue) and Fluo-4 calcium tracking dye (green). The white circle in the bottom-left image depicts the area to which light stimulus was delivered. Scale bar is 50 μm and applies to all images. (b) Fluo-4 fluorescence traces of HeLa cells treated with MM 1 and stimulated with 250 ms pulse of 400 nm light delivered to a 5 μm diameter circular region of interest at 3.2×10^2 W cm^−2 stimulation power.
(§1) Cell Culture and Preparation of Cells for Microscopy: HEK293 cells were chosen as the principal model system due to their prevalence in electrophysiological interrogation. […] HEK293 cells, HeLa cells, and N2A cells were cultured in DMEM (10% FBS, 1% penicillin/streptomycin) and passaged at <90% confluence. […]
(§2) In Vitro Imaging and Stimulation: Cells were loaded in a Nikon A1-Rsi confocal system mounted on a widefield Ti-E fluorescence microscope. […] Laser stimulation for in vitro experiments was performed with a 400 nm photodiode laser (Coherent OBIS™ LX SF) operating in a fluorescence-recovery-after-photobleaching (FRAP) experiment mode, delivering up to 6.4×10^2 W cm^−2 at sample level. […] Fluo-4 fluorescence was collected for 30 s before and 2 min after stimulation. […]

C2C12 myoblasts = assay: MM-induced calcium release in C2C12 cells (Fluo-4); type: cell-based, mouse; conditions: MM 1, 1 s instead of 500 ms
[1] = tested on: primary rat cardiomyocytes; assay: Spiking, beating and contraction of primary cardiomyocytes after MM stimulation; type: cell-based
N2A cells = assay: MM-induced calcium responses in N2A cells; type: cell-based; conditions: 400 nm, 250 ms, 3.2×10^2 W cm^−2
Excerpt: FIGS. 11A & 11B—ICW in N2A cells after stimulation with MM 1 and light. (a) Confocal images of N2A cells treated with MM 1 (blue) and calcium tracking dye (Fluo-4; green). The white circle in the top-left image depicts the area to which stimulus was delivered. The scale bar is 50 μm and applies to all images. (b) Fluo-4 fluorescence traces of N2A cells treated with MM 1 and stimulated with 250 ms pulse of 400 nm light delivered to a 5 μm diameter circular region of interest at 3.2×10^2 W cm^−2 stimulation power.
as §1, §2

HEK293 cells = assay: Assessment of stimulation toxicity (apoptosis, necrosis, PI uptake); type: cell-based
Excerpt: Assessment of Stimulation Toxicity: The purpose was to use MM to interact with cell signaling. However, several previous studies by the group have explored the same or similar molecules for inducing cell permeabilization and death (Santos et al., 2022; Alaya-Orozco et al., 2020; Gunasekera et al., 2020). These studies used minutes-long light doses rather than the millisecond-scale doses employed in this work. Nevertheless, assessing the effects of MM stimulation on cell viability remains imperative.
Potentially toxic effects of MM stimulation on cells were assessed in several ways. First, qualitative analysis of stimulated cells can be used to assess toxicity. For these experiments, HEK293 cells were treated with MM 1 and prepared as was typical for stimulation experiments.
Second, once a suitable window of stimulation power had been identified, the effects of stimulation on cells were compared to healthy cells and several positive controls representing mechanisms of cell death. For these experiments, cells were loaded with Fluo-4, CellMask cell membrane labeling dye, and MM 1 and were imaged in the presence of cell-impermeant viability dye propidium iodide (PI; 1 μg mL^−1). The onset of apoptotic cell death in imaged colonies was confirmed by the observation of pyknosis (cell shrinkage) (Hajnoczky et al., 2003), the uptake of small amounts of PI, and the enhanced fluorescence of Fluo-4 in the colony (FIG. 8A).
Finally, to account for potential aftereffects of stimulation, isolated HEK293 colonies were grew in a grid pattern by photolithographically patterning polydimethylsiloxane onto Ibidi imaging dishes. Colonies were seeded with 25,000 cells cm^−2. Two days after seeding, cells were treated with MM 1 and Fluo-4 using typical protocols (see Example 6), and 10 selected cells were stimulated in selected colonies. After 24 h, these colonies were imaged again in the presence of 1 μg mL^−1 PI to observe any effects of MM stimulation on growth, cell stress, or viability.

SMILES: CC1Cc2ccc3ccccc3c2C1=C1c2ccccc2Sc2cc(NCCN(C)C)ccc21 (stereo not drawn) [MM 1]
- Calcium responses induced by MM 1 actuation (HeLa cells): also observed
- Calcium release at longer stimulation (C2C12 myoblasts): larger calcium release
- Contraction / beating of cardiomyocytes ([1]; 400 nm, 250 ms, 5.1×10^2 W cm^−2): local contraction in the stimulated cell; also recorded: periodic beating in the stimulated cell and surrounding cell
- Firing rate of cardiomyocytes ([1]; MM 1 + light in presence of U-73 10 μM, P<0.0001): ~ 0.8 spikes min^−1 cell^−1
- Spiking activity of cardiomyocytes ([1]; MM 1 + light, absence of extracellular calcium): did not exhibit any spiking activity
- Firing rate of cardiomyocytes ([1]; MM 1 + light, calcium-containing medium): 5.1 spikes min^−1 cell^−1
- Calcium responses induced by MM 1 actuation (N2A cells): also observed
- Cell toxicity after typical stimulation (HEK293 cells; MM 1 8 μM, 3.2×10^2 W cm^−2 for 250 ms): cells recovered from stimulation and showed no signs of apoptosis or necrosis
- Cell toxicity at reduced light dose (HEK293 cells; MM 1, 3.2×10^2 W cm^−2 for 1 s, 30 min): strong calcium responses from cells without observable toxicity; also recorded: the calcium signal has returned to homeostatic levels, and the stimulated cell and surrounding cells display no apparent damage
- Cell toxicity at high light dose (HEK293 cells; MM 1, 6.4×10^2 W cm^−2 for 4 s): membrane blebbing and calcium accumulation over a 30 min period, indicating cell death; also recorded: membrane blebbing and runaway calcium accumulation; also recorded: the calcium signal has not returned to homeostasis, and membrane blebbing is apparent
- PI uptake of stimulated colonies 24 h after stimulation (HEK293 cells; MM 1, 10 cells stimulated per colony, 1 μg mL^−1 PI): indistinguishable from untreated colonies
- Necrotic cell death under UV/DAPI-filter LED (HEK293 cells; MM 1, 395/25 nm, 166 mW cm^−2, 5 min): Necrotic cell death was observed

Source: patent US20260373497A1, “MOLECULAR MACHINES STIMULATE INTERCELLULAR CALCIUM WAVES AND CAUSE MUSCLE CONTRACTION” (William Marsh Rice University, priority 2022, published 2026)
